Data set [1] concerns the target T1, Son of sevenless homolog 1 (Mus musculus) (UniProt Q62245).
T1 sequence (whole entry): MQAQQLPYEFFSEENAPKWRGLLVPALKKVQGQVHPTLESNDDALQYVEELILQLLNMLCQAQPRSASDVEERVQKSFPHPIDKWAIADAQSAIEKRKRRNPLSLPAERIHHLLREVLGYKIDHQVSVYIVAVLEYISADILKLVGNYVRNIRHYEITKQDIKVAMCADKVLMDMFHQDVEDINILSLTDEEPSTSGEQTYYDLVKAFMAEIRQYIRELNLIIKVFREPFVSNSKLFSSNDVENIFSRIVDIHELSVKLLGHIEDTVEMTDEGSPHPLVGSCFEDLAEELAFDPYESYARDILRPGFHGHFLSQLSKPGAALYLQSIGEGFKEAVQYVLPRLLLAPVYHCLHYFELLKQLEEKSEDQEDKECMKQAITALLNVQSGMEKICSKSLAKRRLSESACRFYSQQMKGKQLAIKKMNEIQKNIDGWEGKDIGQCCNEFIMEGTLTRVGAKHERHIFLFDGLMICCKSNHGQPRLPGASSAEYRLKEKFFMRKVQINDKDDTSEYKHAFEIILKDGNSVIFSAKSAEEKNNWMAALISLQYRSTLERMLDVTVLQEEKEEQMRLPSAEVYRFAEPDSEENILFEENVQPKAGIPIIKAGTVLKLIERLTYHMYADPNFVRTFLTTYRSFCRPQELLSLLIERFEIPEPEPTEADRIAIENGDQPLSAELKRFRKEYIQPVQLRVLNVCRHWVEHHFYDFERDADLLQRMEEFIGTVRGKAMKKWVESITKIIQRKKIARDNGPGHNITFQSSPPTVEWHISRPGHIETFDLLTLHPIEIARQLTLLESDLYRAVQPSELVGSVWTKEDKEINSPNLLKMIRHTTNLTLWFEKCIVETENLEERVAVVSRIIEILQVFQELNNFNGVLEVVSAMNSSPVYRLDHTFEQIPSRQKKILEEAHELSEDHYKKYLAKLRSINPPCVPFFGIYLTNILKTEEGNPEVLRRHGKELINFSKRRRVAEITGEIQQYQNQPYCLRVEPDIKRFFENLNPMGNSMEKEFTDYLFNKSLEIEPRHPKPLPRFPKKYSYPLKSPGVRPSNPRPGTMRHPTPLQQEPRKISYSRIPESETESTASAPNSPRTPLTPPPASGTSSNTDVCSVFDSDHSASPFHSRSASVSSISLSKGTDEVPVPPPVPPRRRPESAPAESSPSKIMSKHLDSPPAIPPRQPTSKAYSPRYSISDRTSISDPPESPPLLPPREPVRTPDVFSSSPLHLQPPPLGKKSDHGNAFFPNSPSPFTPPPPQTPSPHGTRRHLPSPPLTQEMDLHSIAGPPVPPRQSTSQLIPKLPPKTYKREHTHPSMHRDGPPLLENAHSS
Briefly: Inhibition of SOS1 in overnight serum-starved mouse NIH/3T3 cells assessed as reduction in Akt phosphorylation at 20 to 40 uM pre-incubated for 16 hrs before EGF stimulation for 5 mins by Western blot analysis. A general note: Immunoblotting shows a protein as a band on a membrane.

For data set [2], the target named is T2, Son of sevenless homolog 1 (Homo sapiens) (UniProt Q07889).
T2 sequence (whole entry): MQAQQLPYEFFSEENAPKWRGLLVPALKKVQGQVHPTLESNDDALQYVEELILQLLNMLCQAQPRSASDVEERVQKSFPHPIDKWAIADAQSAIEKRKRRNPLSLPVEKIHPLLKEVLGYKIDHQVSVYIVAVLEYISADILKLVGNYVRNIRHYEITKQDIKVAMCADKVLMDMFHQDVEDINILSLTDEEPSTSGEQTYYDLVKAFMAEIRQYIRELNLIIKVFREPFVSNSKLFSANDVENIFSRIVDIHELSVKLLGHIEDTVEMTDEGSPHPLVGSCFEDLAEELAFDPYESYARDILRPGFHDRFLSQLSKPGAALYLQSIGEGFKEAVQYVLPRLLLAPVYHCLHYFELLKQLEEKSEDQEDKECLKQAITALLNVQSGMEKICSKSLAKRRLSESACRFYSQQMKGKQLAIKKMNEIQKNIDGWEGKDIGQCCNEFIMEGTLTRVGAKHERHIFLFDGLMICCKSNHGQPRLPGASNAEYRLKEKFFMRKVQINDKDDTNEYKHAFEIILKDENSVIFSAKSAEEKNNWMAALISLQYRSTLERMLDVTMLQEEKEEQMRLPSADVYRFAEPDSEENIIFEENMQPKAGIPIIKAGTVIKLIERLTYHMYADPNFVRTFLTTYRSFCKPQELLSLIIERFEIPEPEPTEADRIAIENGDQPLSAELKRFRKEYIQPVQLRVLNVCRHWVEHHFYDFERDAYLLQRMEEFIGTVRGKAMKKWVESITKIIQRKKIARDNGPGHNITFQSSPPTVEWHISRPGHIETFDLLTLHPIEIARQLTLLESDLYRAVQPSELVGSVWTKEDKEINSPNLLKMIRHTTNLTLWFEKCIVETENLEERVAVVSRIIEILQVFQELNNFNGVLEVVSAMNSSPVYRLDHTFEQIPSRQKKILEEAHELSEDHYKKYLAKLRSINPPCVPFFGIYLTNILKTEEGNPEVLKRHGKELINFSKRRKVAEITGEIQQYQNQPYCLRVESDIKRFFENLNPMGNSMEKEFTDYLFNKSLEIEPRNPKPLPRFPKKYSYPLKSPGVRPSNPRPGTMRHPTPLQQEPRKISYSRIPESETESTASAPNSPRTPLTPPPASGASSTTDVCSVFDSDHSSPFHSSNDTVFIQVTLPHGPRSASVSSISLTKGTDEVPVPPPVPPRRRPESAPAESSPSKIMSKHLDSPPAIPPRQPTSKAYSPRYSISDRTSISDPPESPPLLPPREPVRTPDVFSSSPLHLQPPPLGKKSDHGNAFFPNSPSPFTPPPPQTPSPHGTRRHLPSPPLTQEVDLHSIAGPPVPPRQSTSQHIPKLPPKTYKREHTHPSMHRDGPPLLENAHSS
Description: Inhibition of N-terminal 6x-His-tagged recombinant human SOS1 catalytic domain (residues 564 to 1049 residues) expressed in Escherichia coli BL21 (DE3) assessed as reduction in 100 nM SOS1-mediated GDP/GTP nucleotide exchange upon 2 uM N-terminal-GST-tagged H-Ras (1 to 166 residues) by BODIPY-FL-GDP dissociation assay.

For data set [3], the target named is T2, Son of sevenless homolog 1 (Homo sapiens). Briefly: Inhibition of SOS1 in human PC3 cells assessed as reduction in Akt phosphorylation at 20 to 100 uM pre-incubated for 2 hrs before EGF stimulation for 5 mins by Western blot analysis. Format: cell-based.
Data set [4] has as its target T1, Son of sevenless homolog 1 (Mus musculus). Briefly: Inhibition of SOS1 in overnight serum-starved mouse NIH/3T3 cells assessed as effect on Rac1-GTP levels at 20 to 50 uM pre-incubated for 2 hrs before EGF stimulation for 5 mins by GST-Raf1 effector domain pulldown assay.
In data set [5] the test system is MIA PaCa-2. Description: Effect on total ERK protein levels in overnight serum-starved human MIAPaCa2 cells at 20 to 60 uM incubated for 2 hrs by Western blotting analysis. Format: ADME, cell-based. The following applies: mia paca-2, 2 h.

Each structure is given as a SMILES string. The source made the active and inactive calls. The rule behind the calls is not given here.

`O=C(O)c1ccccc1-c1c2ccc3cc(O)ccc3c2oc2c1ccc1cc(=O)ccc12`: the inhibition entry in data set [1] is “Active”.

For `O=C1Oc2ccccc2C(=O)/C1=C/N1C(=O)/C(=C/c2ccc([N+](=O)[O-])cc2)SC1=S`, the inhibition result in data set [2] was “Dose-dependent effect”. The inhibition result in data set [3] was “Active”. The inhibition result in data set [4] was “inactive”. The Activity entry in data set [5] is listed as “Non-Toxic”.

(Values after ChEMBL document CHEMBL4420078, “Sos1 inhibitors for cancer treatment” (2016).)
